Measured values: patent publication US12012409B2, “Bicyclic heterocycles as FGFR inhibitors” (Incyte Corporation, priority 2020, dated 2024)

Legend:
Format in all cases: biochemical
Conditions in all cases: wild-type un-phosphorylated protein; pre-incubated for 4 hours; ATP near or below Km
[1] = target: wild-type un-phosphorylated FGFR3 (Homo sapiens, UniProt P22607); experiment: FGFR Enzymatic Assay (FRET peptide phosphorylation), FGFR3
Description: (§1) The inhibitor potency of the exemplified compounds was determined in an enzyme discontinuous assay that measures peptide phosphorylation using FRET measurements to detect product formation. Inhibitors were serially diluted in DMSO and a volume of 0.2 μL was transferred to the wells of a 384-well plate. […] Appropriate controls (enzyme blank and enzyme with no inhibitor) were included on the plate. […] The ATP Km values were pre-determined in a separate series of experiments. […] The plate was allowed to equilibrate for ˜10 minutes at ambient temperature before scanning on a PheraStar plate reader (BMG Labtech) instrument.
(§2) Either GraphPad prism or XLfit was used to analyze the data. The IC50 values were derived by fitting the data to a four parameter logistic equation producing a sigmoidal dose-response curve with a variable Hill coefficient. Prism equation: Y=Bottom+(Top−Bottom)/(1+10^((LogIC50−X)*Hill slope)); XLfit equation: Y=(A+((B−A)/(1+((X/C)^D)))) where X is the logarithm of inhibitor concentration and Y is the response.

[2] = target: wild-type un-phosphorylated FGFR1 (Homo sapiens, UniProt P11362); experiment: FGFR Enzymatic Assay (FRET peptide phosphorylation), FGFR1
wild-type un-phosphorylated FGFR1, sequence (P11362 22-822): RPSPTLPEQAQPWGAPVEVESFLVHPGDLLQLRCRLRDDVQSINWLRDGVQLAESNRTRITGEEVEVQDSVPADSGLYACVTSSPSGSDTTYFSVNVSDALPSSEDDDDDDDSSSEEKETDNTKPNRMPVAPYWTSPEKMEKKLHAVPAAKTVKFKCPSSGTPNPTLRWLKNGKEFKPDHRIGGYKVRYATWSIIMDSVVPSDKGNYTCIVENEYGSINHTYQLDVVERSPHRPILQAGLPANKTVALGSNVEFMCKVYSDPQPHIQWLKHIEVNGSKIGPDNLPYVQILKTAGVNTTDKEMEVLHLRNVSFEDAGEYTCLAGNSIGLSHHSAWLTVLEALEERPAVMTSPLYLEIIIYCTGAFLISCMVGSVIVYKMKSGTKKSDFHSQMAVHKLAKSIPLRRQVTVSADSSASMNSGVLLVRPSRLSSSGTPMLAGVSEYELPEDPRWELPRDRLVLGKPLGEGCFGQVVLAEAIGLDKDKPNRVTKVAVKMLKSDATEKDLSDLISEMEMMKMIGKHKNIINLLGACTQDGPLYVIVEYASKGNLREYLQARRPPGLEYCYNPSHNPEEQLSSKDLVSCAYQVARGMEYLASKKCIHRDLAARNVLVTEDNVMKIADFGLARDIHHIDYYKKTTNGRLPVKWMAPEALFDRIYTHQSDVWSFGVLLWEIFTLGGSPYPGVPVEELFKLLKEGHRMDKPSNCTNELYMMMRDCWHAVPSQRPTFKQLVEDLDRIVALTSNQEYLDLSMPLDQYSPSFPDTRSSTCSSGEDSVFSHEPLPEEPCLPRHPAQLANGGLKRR
Description: as §1, §2

[3] = target: wild-type un-phosphorylated FGFR2 (Homo sapiens, UniProt P21802); experiment: FGFR Enzymatic Assay (FRET peptide phosphorylation), FGFR2
wild-type un-phosphorylated FGFR2, sequence (P21802 22-821): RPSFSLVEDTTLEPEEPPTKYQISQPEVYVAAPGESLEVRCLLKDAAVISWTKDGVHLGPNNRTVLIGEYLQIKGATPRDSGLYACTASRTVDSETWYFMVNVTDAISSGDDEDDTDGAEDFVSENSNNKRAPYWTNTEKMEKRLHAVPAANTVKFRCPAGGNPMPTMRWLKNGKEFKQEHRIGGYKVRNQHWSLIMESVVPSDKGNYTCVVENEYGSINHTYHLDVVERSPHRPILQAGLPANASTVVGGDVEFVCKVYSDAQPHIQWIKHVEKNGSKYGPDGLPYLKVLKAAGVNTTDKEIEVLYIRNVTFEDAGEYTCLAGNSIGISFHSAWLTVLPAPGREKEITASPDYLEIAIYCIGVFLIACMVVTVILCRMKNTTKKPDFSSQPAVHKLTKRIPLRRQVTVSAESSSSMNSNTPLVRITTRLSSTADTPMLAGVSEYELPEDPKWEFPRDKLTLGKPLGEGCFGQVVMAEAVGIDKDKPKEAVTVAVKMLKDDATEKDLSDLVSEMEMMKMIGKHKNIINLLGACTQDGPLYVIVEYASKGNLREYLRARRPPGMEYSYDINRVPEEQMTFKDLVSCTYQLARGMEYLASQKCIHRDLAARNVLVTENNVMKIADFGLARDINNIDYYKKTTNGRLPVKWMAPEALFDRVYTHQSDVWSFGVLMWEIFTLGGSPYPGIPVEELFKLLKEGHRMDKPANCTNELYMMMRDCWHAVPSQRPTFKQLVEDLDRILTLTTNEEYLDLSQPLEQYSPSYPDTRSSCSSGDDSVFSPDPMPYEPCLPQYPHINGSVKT
Description: as §1, §2
The data in Table 1 was measured in wild-type un-phosphorylated FGFR1, FGFR2, FGFR3 and FGFR4 protein.

wild-type un-phosphorylated FGFR3, sequence (P22607 23-806): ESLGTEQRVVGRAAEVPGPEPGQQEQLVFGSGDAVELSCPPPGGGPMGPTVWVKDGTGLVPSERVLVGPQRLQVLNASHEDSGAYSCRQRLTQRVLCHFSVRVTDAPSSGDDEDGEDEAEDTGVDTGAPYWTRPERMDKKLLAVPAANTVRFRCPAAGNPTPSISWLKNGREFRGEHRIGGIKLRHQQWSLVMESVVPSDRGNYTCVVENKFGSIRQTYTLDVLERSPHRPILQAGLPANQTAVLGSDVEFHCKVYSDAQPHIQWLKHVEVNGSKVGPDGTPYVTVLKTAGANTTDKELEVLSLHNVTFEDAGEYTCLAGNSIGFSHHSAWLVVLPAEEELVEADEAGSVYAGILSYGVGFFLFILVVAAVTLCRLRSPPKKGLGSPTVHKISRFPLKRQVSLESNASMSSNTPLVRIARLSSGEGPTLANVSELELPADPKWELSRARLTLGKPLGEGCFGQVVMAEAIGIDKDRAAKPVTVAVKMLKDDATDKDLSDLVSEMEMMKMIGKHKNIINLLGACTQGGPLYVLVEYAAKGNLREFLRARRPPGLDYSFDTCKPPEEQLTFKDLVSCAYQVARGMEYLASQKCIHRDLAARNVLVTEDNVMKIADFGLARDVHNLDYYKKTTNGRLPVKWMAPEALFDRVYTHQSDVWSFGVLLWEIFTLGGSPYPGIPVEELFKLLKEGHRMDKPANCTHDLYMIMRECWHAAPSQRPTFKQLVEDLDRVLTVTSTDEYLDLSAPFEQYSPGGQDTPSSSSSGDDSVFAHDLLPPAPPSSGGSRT

SMILES | IC50 [1] | IC50 [2] | IC50 [3]
CNC(=O)c1cc(-c2cnc3cc(-c4cnn5ccccc45)c(O[C@H]4CCOC4)nn23)c(F)c(C(F)F)c1 [Example 27, (S)-3-(Difluoromethyl)-4-fluoro-N-methyl-5-(7-(pyrazolo[1,5-a]pyridin-3-yl)-6-((tetrahydrofuran-3-yl)oxy)imidazo[1,2-b]pyridazin-3-yl)benzamide] | 10 to 100 nM | 10 to 100 nM | 10 to 100 nM
CNC(=O)c1cc(-c2cnc3cc(-c4cnn5c4CNCC5)c(O[C@H]4CCOC4)nn23)c(F)c(C(F)F)c1 [Example 28, (S)-3-(Difluoromethyl)-4-fluoro-N-methyl-5-(6-((tetrahydrofuran-3-yl)oxy)-7-(4,5,6,7-tetrahydropyrazolo[1,5-a]pyrazin-3-yl)imidazo[1,2-b]pyridazin-3-yl)benzamide] | 10 to 100 nM | ≥ 400 nM | 10 to 100 nM
CNC(=O)c1cc(-c2cnc3cc(-c4ccc(C)c(C#N)c4)c(O[C@H]4CCOC4)nn23)c(F)c(C(F)F)c1 [Example 31, (S)-3-(7-(3-Cyano-4-methylphenyl)-6-((tetrahydrofuran-3-yl)oxy)imidazo[1,2-b]pyridazin-3-yl)-5-(difluoromethyl)-4-fluoro-N-methylbenzamide] | 10 to 100 nM | ≥ 400 nM | 10 to 100 nM
CNC(=O)c1cc(-c2cnc3cc(-c4ccc(C(=O)NC)c(F)c4)c(O[C@H]4CCOC4)nn23)c(F)c(C(F)F)c1 [Example 36, (S)-3-(Difluoromethyl)-4-fluoro-5-(7-(3-fluoro-4-(methylcarbamoyl)phenyl)-6-((tetrahydrofuran-3-yl)oxy)imidazo[1,2-b]pyridazin-3-yl)-N-methylbenzamide] | 10 to 100 nM | 100 to 400 nM | 10 to 100 nM
CNC(=O)c1cc(CO)c(F)c(-c2cnc3cc(-c4cnn(C)c4)c(O[C@H]4CCOC4)nn23)c1 [Example 40, (S)-4-Fluoro-3-(hydroxymethyl)-N-methyl-5-(7-(1-methyl-1H-pyrazol-4-yl)-6-((tetrahydrofuran-3-yl)oxy)imidazo[1,2-b]pyridazin-3-yl)benzamide] | < 10 nM | 10 to 100 nM | < 10 nM
CNC(=O)c1cc(CC#N)c(F)c(-c2cnc3cc(-c4cnn(C)c4)c(O[C@H]4CCOC4)nn23)c1 [Example 44, (S)-3-(Cyanomethyl)-4-fluoro-N-methyl-5-(7-(1-methyl-1H-pyrazol-4-yl)-6-((tetrahydrofuran-3-yl)oxy)imidazo[1,2-b]pyridazin-3-yl)benzamide] | < 10 nM | 100 to 400 nM | 10 to 100 nM
CNC(=O)c1cc(CN2CCCC2)c(F)c(-c2cnc3cc(-c4cnn(C)c4)c(O[C@H]4CCOC4)nn23)c1 [Example 45, (S)-4-Fluoro-N-methyl-3-(7-(1-methyl-1H-pyrazol-4-yl)-6-((tetrahydrofuran-3-yl)oxy)imidazo[1,2-b]pyridazin-3-yl)-5-(pyrrolidin-1-ylmethyl)benzamide] | 10 to 100 nM | 10 to 100 nM | 10 to 100 nM
CC(C)n1cc(-c2cc3ncc(-c4cccc(F)c4F)n3nc2O[C@H]2CCOC2)cn1 [Example 46, (S)-3-(2,3-Difluorophenyl)-7-(1-isopropyl-1H-pyrazol-4-yl)-6-((tetrahydrofuran-3-yl)oxy)imidazo[1,2-b]pyridazine] | 10 to 100 nM | 100 to 400 nM | 10 to 100 nM
CCOc1cccc(-c2cnc3cc(-c4cnn(C)c4)c(O[C@H]4CCOC4)nn23)c1 [Example 47, (S)-3-(3-Ethoxyphenyl)-7-(1-methyl-1H-pyrazol-4-yl)-6-((tetrahydrofuran-3-yl)oxy)imidazo[1,2-b]pyridazine] | 10 to 100 nM | 10 to 100 nM | 10 to 100 nM
CC(C)(O)Cn1cc(-c2cc3ncc(-c4cccc(-c5ccc(F)cc5F)c4)n3nc2O[C@H]2CCOC2)cn1 [Example 48, (S)-1-(4-(3-(2′,4′-Difluoro-[1,1′-biphenyl]-3-yl)-6-((tetrahydrofuran-3-yl)oxy)imidazo[1,2-b]pyridazin-7-yl)-1H-pyrazol-1-yl)-2-methylpropan-2-ol] | 10 to 100 nM | 10 to 100 nM | 10 to 100 nM
CNC(=O)c1cncc(-c2cnc3cc(-c4ccc(NC(=O)OC)cc4)c(O[C@H]4CCOC4)nn23)c1 [Example 67, Methyl (S)-(4-(3-(5-(Methylcarbamoyl)pyridin-3-yl)-6-((tetrahydrofuran-3-yl)oxy)imidazo[1,2-b]pyridazin-7-yl)phenyl)carbamate] | 10 to 100 nM | 100 to 400 nM | 10 to 100 nM

Other lines, results leading:

IC50 [1] | IC50 [2] | IC50 [3] | SMILES
< 10 nM | 10 to 100 nM | < 10 nM | CNC(=O)c1cc(F)c(F)c(-c2cnc3cc(-c4cnn(C)c4)c(OCCOC)nn23)c1 [Example 20, 3,4-Difluoro-5-(6-(2-methoxyethoxy)-7-(1-methyl-1H-pyrazol-4-yl)imidazo[1,2-b]pyridazin-3-yl)-N-methylbenzamide]
< 10 nM | 100 to 400 nM | 10 to 100 nM | CNC(=O)c1cc(F)c(F)c(-c2cnc3cc(-c4ccc(C)nc4)c(O[C@H]4CCOC4)nn23)c1 [Example 21, (S)-3,4-Difluoro-N-methyl-5-(7-(6-methylpyridin-3-yl)-6-((tetrahydrofuran-3-yl)oxy)imidazo[1,2-b]pyridazin-3-yl)benzamide]
< 10 nM | 10 to 100 nM | < 10 nM | CNC(=O)c1cc(F)c(F)c(-c2cnc3cc(-c4cnn(C5COC5)c4)c(O[C@H]4CCOC4)nn23)c1 [Example 23, (S)-3,4-Difluoro-N-methyl-5-(7-(1-(oxetan-3-yl)-1H-pyrazol-4-yl)-6-((tetrahydrofuran-3-yl)oxy)imidazo[1,2-b]pyridazin-3-yl)benzamide]
< 10 nM | < 10 nM | < 10 nM | CNC(=O)c1cc(F)c(F)c(-c2cnc3cc(-c4cnn(C(C)C)c4)c(O[C@H]4CCOC4)nn23)c1 [Example 24, (S)-3,4-Difluoro-5-(7-(1-isopropyl-1H-pyrazol-4-yl)-6-((tetrahydrofuran-3-yl)oxy)imidazo[1,2-b]pyridazin-3-yl)-N-methylbenzamide]
< 10 nM | < 10 nM | < 10 nM | CNC(=O)c1cc(F)c(F)c(-c2cnc3cc(-c4cnn(C5CCC5)c4)c(O[C@H]4CCOC4)nn23)c1 [Example 25, (S)-3-(7-(1-Cyclobutyl-1H-pyrazol-4-yl)-6-((tetrahydrofuran-3-yl)oxy)imidazo[1,2-b]pyridazin-3-yl)-4,5-difluoro-N-methylbenzamide]
< 10 nM | 10 to 100 nM | < 10 nM | CNC(=O)c1cc(-c2cnc3cc(-c4cnn(C(C)(C)C#N)c4)c(O[C@H]4CCOC4)nn23)c(F)c(C(F)F)c1 [Example 26, (S)-3-(7-(1-(2-Cyanopropan-2-yl)-1H-pyrazol-4-yl)-6-((tetrahydrofuran-3-yl)oxy)imidazo[1,2-b]pyridazin-3-yl)-5-(difluoromethyl)-4-fluoro-N-methylbenzamide]
< 10 nM | 10 to 100 nM | < 10 nM | CNC(=O)c1cc(-c2cnc3cc(-c4cnn(Cc5cccnc5)c4)c(O[C@H]4CCOC4)nn23)c(F)c(C(F)F)c1 [Example 29, (S)-3-(Difluoromethyl)-4-fluoro-N-methyl-5-(7-(1-(pyridin-3-ylmethyl)-1H-pyrazol-4-yl)-6-((tetrahydrofuran-3-yl)oxy)imidazo[1,2-b]pyridazin-3-yl)benzamide]
< 10 nM | 100 to 400 nM | < 10 nM | CNC(=O)c1cc(-c2cnc3cc(-c4ccc(N5CCCC5)nc4)c(O[C@H]4CCOC4)nn23)c(F)c(C(F)F)c1 [Example 32, (S)-3-(Difluoromethyl)-4-fluoro-N-methyl-5-(7-(6-(pyrrolidin-1-yl)pyridin-3-yl)-6-((tetrahydrofuran-3-yl)oxy)imidazo[1,2-b]pyridazin-3-yl)benzamide]
< 10 nM | 100 to 400 nM | 10 to 100 nM | CNC(=O)c1cc(-c2cnc3cc(-c4ccc(N5CCCC5=O)nc4)c(O[C@H]4CCOC4)nn23)c(F)c(C(F)F)c1 [Example 33, (S)-3-(Difluoromethyl)-4-fluoro-N-methyl-5-(7-(6-(2-oxopyrrolidin-1-yl)pyridin-3-yl)-6-((tetrahydrofuran-3-yl)oxy)imidazo[1,2-b]pyridazin-3-yl)benzamide]
< 10 nM | < 10 nM | < 10 nM | CNC(=O)c1cc(-c2cnc3cc(-c4cnn([C@H]5CC[C@H](O)CC5)c4)c(O[C@H]4CCOC4)nn23)c(F)c(C(F)F)c1 [Example 34, 3-(Difluoromethyl)-4-fluoro-5-(7-(1-((1r,4S)-4-hydroxycyclohexyl)-1H-pyrazol-4-yl)-6-(((S)-tetrahydrofuran-3-yl)oxy)imidazo[1,2-b]pyridazin-3-yl)-N-methylbenzamide]
< 10 nM | 100 to 400 nM | 10 to 100 nM | CNC(=O)c1cc(-c2cnc3cc(-c4ccc(C(C)(C)O)nc4)c(O[C@H]4CCOC4)nn23)c(F)c(C(F)F)c1 [Example 35, (S)-3-(Difluoromethyl)-4-fluoro-5-(7-(6-(2-hydroxypropan-2-yl)pyridin-3-yl)-6-((tetrahydrofuran-3-yl)oxy)imidazo[1,2-b]pyridazin-3-yl)-N-methylbenzamide]
